Biological target: T1, acid ceramidase (Homo sapiens, UniProt Q13510)
T1 construct: host or cells: unnamed cells; lysate 'enriched with acid ceramidase'
T1 sequence (Q13510 22-395): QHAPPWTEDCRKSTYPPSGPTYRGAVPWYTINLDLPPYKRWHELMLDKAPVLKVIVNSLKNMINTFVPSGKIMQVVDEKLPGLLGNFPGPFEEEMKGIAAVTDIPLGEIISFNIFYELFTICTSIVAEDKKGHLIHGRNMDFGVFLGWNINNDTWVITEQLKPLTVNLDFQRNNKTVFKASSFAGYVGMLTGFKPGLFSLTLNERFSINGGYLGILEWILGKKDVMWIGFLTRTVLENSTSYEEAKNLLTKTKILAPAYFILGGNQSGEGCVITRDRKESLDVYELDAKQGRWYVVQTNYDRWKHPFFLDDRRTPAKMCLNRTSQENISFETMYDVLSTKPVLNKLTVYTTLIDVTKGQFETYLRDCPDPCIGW
Test: acid ceramidase fluorescent intensity assay with fluorogenic substrate Rbm 14-12
Assay type: biochemical
Conditions: cell lysates enriched with acid ceramidase, 1 hour pre-incubation, pH 4.5, substrate Rbm 14-12 at 6.3 μM, room temperature, 1 or two hours; read-out: average IC50 value for the 1 and 2 hour time points
Protocol: Inhibition of acid ceramidase activity by compound 25 of Table 1 was evaluated in a fluorescent intensity assay using a fluorogenic substrate Rbm 14-12 […]. Compound 25 was incubated with cell lysates enriched with acid ceramidase for 1 hour in an assay buffer containing 50 mM NaOAc and 100 mM NaCl at pH 4.5. The reaction was initiated by the addition of the substrate at a final concentration of 6.3 μM and the mixture was incubated at room temperature for 1 or two hours. At the appropriate time, the reaction was quenched by the addition of methanol and treated with NaIO4 (fresh 2.5 mg/ml solution was made in 100 mM glycine/NaOH buffer, pH 10.6), followed by incubation for 1 hour at room temperature. Fluorescent intensity was measured using a plate reader at ex 355 nm and em 460 nm.

O=C(NCCCCc1ccccc1)n1c(=O)oc2cc(-c3ccc(F)cc3)ccc21 [compound 25, 6-(4-fluorophenyl)-2-oxo-N-(4-phenylbutyl)-1,3-benzoxazole-3-carboxamide]
IC50: 250 to 500 nM

Source: patent US20180369211A1, “METHODS AND COMPOSITIONS FOR TREATING NEURODEGENERATIVE DISORDERS” (Lysosomal Therapeutics Inc., priority 2016, published 2018)
